Columns and labels:
T-AKT and P-AKT (S473) = test: Western blot of AKT degradation in PC3 cells; assay type: cell-based, human; conditions: for T-AKT and P-AKT degradation (western blot): PC3 cells, 1 μM, 24 h
[1] = system: P-PRAS40 (T246) and P-S6 (S240/244); test: Western blot of downstream signaling inhibition in PC3 cells; assay type: cell-based, human; conditions: 1 μM, 24 h, vs GSK690693
[2] = system: total AKT (T-AKT) and phosphorylated AKT (P-AKT (S473)); test: Western blot of AKT degradation in BT474 cells; assay type: cell-based, human; conditions: for T-AKT and P-AKT degradation / duration of T-AKT and P-AKT degradation / time course of T-AKT and P-AKT degradation: 1 μM; for T-AKT and P-AKT degradation / hook effect in AKT degradation / extent of T-AKT degradation in concentration-response: 24 h; for T-AKT and P-AKT protein degradation (western blot): 24 h, 1, 5 and 10 μM (12-13: 1, 3 and 10 μM); for time course of T-AKT and P-AKT degradation: indicated times; for hook effect in AKT degradation: higher concentrations (up to 10 μM); for extent of T-AKT degradation in concentration-response: indicated concentrations; for hook effect in concentration-response: concentrations up to 10 μM
[3] = system: P-PRAS40 (T246) and P-S6 (S240/244); test: Western blot of downstream signaling inhibition in BT474 cells; assay type: cell-based, human; conditions: for inhibition of downstream signaling, P-PRAS40 and P-S6: 24 h, compared with GDC-0068 (1 μM); for kinetics of downstream signaling inhibition: 1 μM, vs GDC-0068
T-AKT and P-AKT = test: Competition; assay type: cell-based, human; conditions: BT474, then degrader 22 h; for effect of GDC-0068 pretreatment on degrader-induced AKT degradation: 2 h pretreatment with GDC-0068 (1 μM); for effect of MG132 pretreatment on degrader-induced AKT degradation: 2 h pretreatment with MG132 (10 μM); for effect of MLN4924 pretreatment on degrader-induced AKT degradation: 2 h pretreatment with MLN4924 (1 μM)
PC3 cells = test: Cell proliferation assay; assay type: cell-based, human; conditions: 5 days
MDA-MB-468 cells [4] = test: Cell proliferation assay; assay type: cell-based, human; conditions: 5 days
MDA-MB-468 cells [5] = test: Apoptosis assay; assay type: cell-based, human; conditions: MDA-MB-468 cells (Figure S5)
[6] = assay type: in vivo; conditions: mice, single IP injection, 50 mg/kg
[7] = 50 mg/kg; for time of Cmax: male Swiss albino mice, single IP injection

CCn1c(-c2nonc2N)nc2c(C#CC(C)(C)O)ncc(OCCCNCCCC(=O)NCCCCCCCCCCC(=O)N[C@H](C(=O)N3C[C@H](O)C[C@H]3C(=O)NCc3ccc(-c4scnc4C)cc3)C(C)(C)C)c21 [Compound 48, (2S,4R)-1-((S)-2-(11-(4-((3-((2-(4-Amino-1,2,5-oxadiazol-3-yl)-1-ethyl-4-(3-hydroxy-3-methylbut-1-yn-1-yl)-1H-imidazo[4,5-c]-pyridin-7-yl)oxy)propyl)amino)butanamido)undecanamido)-3,3-dimethylbutanoyl)-4-hydroxy-N-(4-(4-methylthiazol-5-yl)benzyl)-pyrrolidine-2-carboxamide]
T-AKT and P-AKT degradation (western blot) (T-AKT and P-AKT (S473)): the most effective in degrading T-AKT and P-AKT
inhibition of P-PRAS40 [1]: less effective than GSK690693 in inhibiting P-PRAS40

3-(((S)-2-(4-Chlorophenyl)-3-(4-((5R,7R)-7-hydroxy-5-methyl-6,7-dihydro-5H-cyclopenta[d]pyrimidin-4-yl)piperazin-1-yl)-3-oxopropyl)amino)-N-(8-((2-(2,6-dioxopiperidin-3-yl)-1,3-dioxoisoindolin-4-yl)oxy)octyl)propenamide [Compound 29]
T-AKT and P-AKT degradation [2]: > 95%
T-AKT and P-AKT protein degradation (western blot) [2]: maintained the excellent AKT degradation
inhibition of downstream signaling, P-PRAS40 and P-S6 [3]: maintained the excellent AKT degradation and downstream signaling inhibition effects

3-(((S)-2-(4-Chlorophenyl)-3-(4-((5R,7R)-7-hydroxy-5-methyl-6,7-dihydro-5H-cyclopenta[d]pyrimidin-4-yl)piperazin-1-yl)-3-oxopropyl)amino)-N-(9-(2-(2,6-dioxopiperidin-3-yl)-1,3-dioxoisoindolin-4-yl)nonyl)propenamide [Compound 27]
T-AKT and P-AKT degradation [2]: > 95%
T-AKT and P-AKT protein degradation (western blot) [2]: maintained the excellent AKT degradation
inhibition of downstream signaling, P-PRAS40 and P-S6 [3]: maintained the excellent AKT degradation and downstream signaling inhibition effects

CCn1c(-c2nonc2N)nc2c(C#CC(C)(C)O)ncc(OCCCNCCCC(=O)NCCCCCCCCNc3cccc4c3C(=O)N(C3CCC(=O)NC3=O)C4=O)c21 (centres unmarked) [Compound 60, 4-((3-((2-(4-Amino-1,2,5-oxadiazol-3-yl)-1-ethyl-4-(3-hydroxy-3-methylbut-1-yn-1-yl)-1H-imidazo[4,5-c]pyridin-7-yl)oxy)propyl)-amino)-N-(8-((2-(2,6-dioxopiperidin-3-yl)-1,3-dioxoisoindolin-4-yl)-amino)octyl)butanamide]
T-AKT and P-AKT degradation (western blot) (T-AKT and P-AKT (S473)): the most effective in degrading T-AKT and P-AKT
inhibition of P-PRAS40 [1]: less effective than GSK690693 in inhibiting P-PRAS40

Cc1ncsc1-c1ccc(CNC(=O)[C@@H]2C[C@@H](O)CN2C(=O)[C@@H](NC(=O)COCCNC(=O)CCNC[C@@H](C(=O)N2CCN(c3ncnc4c3[C@H](C)C[C@H]4O)CC2)c2ccc(Cl)cc2)C(C)(C)C)cc1 [Compound 3, (2S,4R)-1-((2S,15S)-2-(tert-Butyl)-15-(4-chlorophenyl)-16-(4-((5R,7R)-7-hydroxy-5-methyl-6,7-dihydro-5H-cyclopenta[d]-pyrimidin-4-yl)piperazin-1-yl)-4,10,16-trioxo-6-oxa-3,9,13-triaza-hexadecanoyl)-4-hydroxy-N-(4-(4-methylthiazol-5-yl)benzyl)-pyrrolidine-2-carboxamide]
T-AKT and P-AKT protein degradation (western blot) [2]: induced significant T-AKT and P-AKT protein degradation at concentrations of 5 and 10 μM
inhibition of downstream signaling, P-PRAS40 and P-S6 [3]: less than GDC-0068

Cc1ncsc1-c1ccc([C@H](C)NC(=O)[C@@H]2C[C@@H](O)CN2C(=O)[C@@H](NC(=O)CCCCCCCCCCNC(=O)CCNC[C@@H](C(=O)N2CCN(c3ncnc4c3[C@H](C)C[C@H]4O)CC2)c2ccc(Cl)cc2)C(C)(C)C)cc1 [Compound 12, (2S,4R)-1-((S)-2-(11-(3-(((S)-2-(4-Chlorophenyl)-3-(4-((5R,7R)-7-hydroxy-5-methyl-6,7-dihydro-5H-cyclopenta[d]pyrimidin-4-yl)-piperazin-1-yl)-3-oxopropyl)amino)propanamido)-undecanamido)-3,3-dimethylbutanoyl)-4-hydroxy-N-((S)-1-(4-(4-methylthiazol-5-yl)phenyl)ethyl)pyrrolidine-2-carboxamide]
T-AKT and P-AKT protein degradation (western blot) [2]: remarkable effects on degrading T-AKT and P-AKT
inhibition of downstream signaling, P-PRAS40 and P-S6 [3]: more profound inhibition of P-PRAS40 and P-S6 than 11

C[C@@H]1C[C@@H](O)c2ncnc(N3CCN(C(=O)[C@H](CNCCC(=O)NCCCCCCCCNc4cccc5c4C(=O)N(C4CCC(=O)NC4=O)C5=O)c4ccc(Cl)cc4)CC3)c21 (some centres unmarked) [Compound 25]
duration of T-AKT and P-AKT degradation [2]: at least 24 h
T-AKT and P-AKT degradation [2]: > 95%
time course of T-AKT and P-AKT degradation [2]: Significant P-AKT and T-AKT degradation occurred as early as 4 and 8 h, respectively
T-AKT and P-AKT protein degradation (western blot) [2]: highly effective in reducing T-AKT and P-AKT protein levels
hook effect in AKT degradation [2]: without a ″hook effect″
extent of T-AKT degradation in concentration-response [2]: complete degradation of T-AKT at 300 nM
hook effect in concentration-response [2]: No ″hook effect″ was observed
kinetics of downstream signaling inhibition [3]: not as rapid as that induced by GDC-0068
inhibition of downstream signaling, P-PRAS40 and P-S6 [3]: most effective in inhibiting the downstream signaling
AKT degradation, concentration-response (T-AKT and P-AKT (S473)): effectively induced AKT degradation in a concentration-dependent manner
effect of GDC-0068 pretreatment on degrader-induced AKT degradation (T-AKT and P-AKT): rescued 25-induced AKT degradation
effect of MG132 pretreatment on degrader-induced AKT degradation (T-AKT and P-AKT): rescued 25-induced AKT degradation
effect of MLN4924 pretreatment on degrader-induced AKT degradation (T-AKT and P-AKT): rescued 25-induced AKT degradation
growth inhibition (PC3 cells): comparable potencies to GDC-0068 and INY-03–041
growth inhibition (MDA-MB-468 cells [4]): comparable potencies to GDC-0068 and INY-03–041
apoptosis induced (MDA-MB-468 cells [5]): ≤ 3%
tolerability [6]: well tolerated
time of Cmax [7]: 2 h

Cc1ncsc1-c1ccc([C@H](C)NC(=O)[C@@H]2C[C@@H](O)CN2C(=O)[C@@H](NC(=O)CCCCCCCCCCC(=O)NCCNC[C@@H](C(=O)N2CCN(c3ncnc4c3[C@H](C)C[C@H]4O)CC2)c2ccc(Cl)cc2)C(C)(C)C)cc1 [Compound 13, N^1-(2-(((S)-2-(4-Chlorophenyl)-3-(4-((5R,7R)-7-hydroxy-5-methyl-6,7-dihydro-5H-cyclopenta[d]pyrimidin-4-yl)piperazin-1-yl)-3-oxopropyl)amino)ethyl)-N^12-((S)-1-((2S,4R)-4-hydroxy-2-(((S)-1-(4-(4-methylthiazol-5-yl)phenyl)ethyl)carbamoyl)pyrrolidin-1-yl)-3,3-dimethyl-1-oxobutan-2-yl)dodecanediamide]
duration of T-AKT and P-AKT degradation [2]: at least 24 h
time course of T-AKT and P-AKT degradation [2]: Obvious degradation occurred at 4 h, and near-complete degradation was achieved at 8 h
T-AKT and P-AKT protein degradation (western blot) [2]: remarkable effects on degrading T-AKT and P-AKT
hook effect in AKT degradation [2]: less ″hook effect″ than 12
extent of T-AKT degradation in concentration-response [2]: near-complete depletion of T-AKT at 1 μM
hook effect in concentration-response [2]: No ″hook effect″ was observed
kinetics of downstream signaling inhibition [3]: not as rapid as that induced by GDC-0068
inhibition of downstream signaling, P-PRAS40 and P-S6 [3]: more profound inhibition of P-PRAS40 and P-S6 than 11
AKT degradation, concentration-response (T-AKT and P-AKT (S473)): effectively induced AKT degradation in a concentration-dependent manner
effect of GDC-0068 pretreatment on degrader-induced AKT degradation (T-AKT and P-AKT): blocked the AKT degradation induced by 13
effect of MG132 pretreatment on degrader-induced AKT degradation (T-AKT and P-AKT): completely prevented 13-mediated degradation of T-AKT and P-AKT and inhibition of P-PRAS40
effect of MLN4924 pretreatment on degrader-induced AKT degradation (T-AKT and P-AKT): completely prevented 13-mediated degradation of T-AKT and P-AKT and inhibition of P-PRAS40
growth inhibition (PC3 cells): comparable potencies to GDC-0068 and INY-03–041
growth inhibition (MDA-MB-468 cells [4]): comparable potencies to GDC-0068 and INY-03–041
apoptosis induced (MDA-MB-468 cells [5]): ≤ 3%
tolerability [6]: well tolerated
time of Cmax [7]: 2 h
plasma concentrations over 8 h ([7]; mouse, in vivo, ip): above 3 μM

Source: paper PMC8819633 (Journal of medicinal chemistry, 2021)
